The results in this text go back to patent US11878981B2, “Substituted 1,2,4-oxadiazoles as TRPA1 inhibitors” (Boehringer Ingelheim International GmbH, priority 2021, dated 2024).

As usually defined, the IC50 is the midpoint of a concentration-inhibition curve.

Structures are written as SMILES.

Series [1] in a line: Assay B: Microsomal clearance. The class given is in vitro ADME, human. To be noted: pooled liver microsomes, 37° C., 1 mg/ml protein, test compound 1 μM, NADPH. On the procedure:
Assay B: Microsomal Clearance:
The metabolic degradation of the test compound is assayed at 37° C. with pooled liver microsomes. The final incubation volume of 100 μl per time point contains TRIS buffer pH 7.6 at RT (0.1 M), magnesium chloride (5 mM), microsomal protein (1 mg/ml) and the test compound at a final concentration of 1 μM.
Following a short preincubation period at 37° C., the reactions are initiated by addition of beta-nicotinamide adenine dinucleotide phosphate, reduced form (NADPH, 1 mM) and terminated by transferring an aliquot into solvent after different time points (0, 5, 15, 30, 60 min). Additionally, the NADPH-independent degradation is monitored in incubations without NADPH, terminated at the last time point. The [%] remaining test compound after NADPH independent incubation is reflected by the parameter c (control) (metabolic stability). The quenched incubations are pelleted by centrifugation (10000 g, 5 min).
An aliquot of the supernatant is assayed by LC-MS/MS for the amount of parent compound. The half-life (t½ INVITRO) is determined by the slope of the semilogarithmic plot of the concentration-time profile.
The intrinsic clearance (CL_[…]) is calculated by considering the amount of protein in the incubation: CL _[…] [μl/min/mg protein]=(Ln 2/(half-life [min]*protein content [mg/ml]))*1000 CL_[…]_INVIVO [ml/min/kg]=(CL_[…] [μL/min/mg protein]×MPPGL [mg protein/g liver]×liver factor [g/kg bodyweight])/1000 Qh [%]=CL [ml/min/kg]/hepatic blood flow [ml/min/kg])
(§1) Hepatocellularity, human: 120×10e6 cells/g liver
(§2) Liver factor, human: 25.7 g/kg bodyweight
(§3) Blood flow, human: 21 ml/(min×kg)
A general note: Microsomes from liver hold many membrane-bound enzymes, among them those of drug oxidation.

Series [2] concerns human hepatocytes. The series is described as follows: Assay C: Hepatocyte clearance. The series is classed as in vitro ADME. To be noted: hepatocyte suspension, 5% species serum, test compound 1 μM, six hours. Here is the method:
Assay C: Hepatocyte Clearance
The metabolic degradation of the test compound is assayed in a hepatocyte suspension. Hepatocytes (cryopreserved) are incubated in Dulbecco's modified eagle medium (supplemented with 3.5 μg glucagon/500 mL, 2.5 mg insulin/500 mL and 3.75 mg/500 mL hydrocortison) containing 5% species serum.
The cells are incubated for six hours (incubator, orbital shaker) and samples ([…]) are taken at 0, 0.5, 1, 2, 4 and 6 hours. Samples are transferred into acetonitrile and pelleted by centrifugation (5 min). The supernatant is transferred to a new 96-deepwell plate, evaporated under nitrogen and resuspended.
Decline of Parent Compound is Analyzed by HPLC-MS/MS
CLint is calculated as follows CL_[…]=Dose/AUC=(C0/CD)/(AUD+clast/k)×1000/60. C0: initial concentration in the incubation [μM], CD: cell density of vital cells [10e6 cells/mL], AUD: area under the data [μM×h], clast: concentration of last data point [μM], k: slope of the regression line for parent decline [h−1].
The calculated in vitro hepatic intrinsic clearance can be scaled up to the intrinsic in vivo hepatic Clearance and used to predict hepatic in vivo blood clearance (CL) by the use of a liver model (well stirred model). CL_[…]_INVIVO [ml/min/kg]=(CL_[…] [μL/min/10e6cells]×hepatocellularity [10e6 cells/g liver]×liver factor [g/kg bodyweight])/1000 CL [ml/min/kg]=CL_[…]_INVIVO [ml/min/kg]×hepatic blood flow [ml/min/kg]/(CL_[…]_INVIVO [ml/min/kg]+hepatic blood flow [ml/min/kg]) Qh [%]=CL [ml/min/kg]/hepatic blood flow [ml/min/kg])
as §1, §2, §3

Series [3] concerns the target T1, human TRPA1 ion channel (Homo sapiens, UniProt O75762).
T1 construct: host or cells: HEK293
The series is described as follows: Assay A: TRPA1 assay (in vitro TRPA1 cell assay, FLIPR calcium). The series is classed as cell-based. To be noted: read-out: hTRPA1 IC50. On the procedure:
A human HEK293 cell line over-expressing the human TRPA1 ion channel (Perkin Elmer, Product No. AX-004-PCL) is used as a test system for compound efficacy and potency. Compound activity is determined by measuring the effect of compounds on intracellular calcium concentration induced by AITC (Allylisothiocyanat) agonism in a FLIPRtetra system (Molecular Devices).
The cells are obtained as frozen cells in cryo-vials and stored until use at −150° C.
Cells are grown in culture medium (MEM/EBSS medium with 10% FCS and 0.4 mg/ML Geneticin). […] For sub-culturing cells are detached from flasks by Versene. At the day before the assay, cells are detached, washed twice with medium (MEM/EBSS medium with 10% FCS) and 20000 cells in 20 μl/well are seeded to Poly D-Lysin biocoated 384-well plates (black, clear bottom, Cat. 356697) from Corning. Plates are incubated for 24 hours at 37° C./5% CO2 before use in the assay.
The test compounds are dissolved in 100% DMSO at a concentration of 10 mM and in a first step diluted in DMSO to a concentration of 5 mM, followed by serial dilution steps in 100% DMSO. Dilution factor and number of dilution steps may vary according to needs. Typically 8 different concentrations by 1:5 dilutions are prepared, further intermediate dilutions (1:20) of the substances are carried out with HBSS/HEPES buffer (1×HEPES, Cat. 14065 from Gibco, 20 mM HEPES, Cat. 83264 from SIGMA, 0.1% BSA Cat. 11926 from Invitrogen, pH 7.4
At the assay day cells are washed 3× with assay puffer, 20 μL buffer remaining in the wells after washing. 10 μL Ca6 kit (Cat. R8191 MolecularDevices) loading buffer in HBSS/HEPES is added to the cells and the plates are incubated with lid for 120 minutes at 37°/5% CO2. 10 μL of compound or controls in HBSS/HEPES buffer/5% DMSO from the intermediate dilution plate are carefully added to the wells. […] Finally 10 μL of the agonist AITC 50 μM dissolved in HBSS/HEPES buffer/0.05% DMSO (final concentration 10 μM) is added to the wells followed by an additional read on the FLIPRtetra device for 10 minutes. The area under the signal curve (AUC) after AITC addition is used for IC50/% inhibition calculations
Data Evaluation and Calculation:
Each assay microtiter plate contains wells with vehicle (1% DMSO) controls instead of compound as controls for AITC induced luminescence (100% CTL; high controls) and wells with vehicle controls without AITC as controls for non-specific changes in luminescence (0% CTL; low controls).
The analysis of the data is performed by the calculation of the area under signal curve of the individual wells. Based on this values the % value for the measurement of each substance concentration is calculated (AUC(sample)−AUC(low))*100/(AUC(high)−AUC(low)) using MegaLab software (in house development). The IC50 values are calculated from the % control values using MegaLab software. Calculation: [y=(a−d)/(1+(x/c)^b)+d], a=low value, d=high value; x=conc M; c=IC50 M; b=hill; y=% ctrl

T1 sequence (O75762 whole entry): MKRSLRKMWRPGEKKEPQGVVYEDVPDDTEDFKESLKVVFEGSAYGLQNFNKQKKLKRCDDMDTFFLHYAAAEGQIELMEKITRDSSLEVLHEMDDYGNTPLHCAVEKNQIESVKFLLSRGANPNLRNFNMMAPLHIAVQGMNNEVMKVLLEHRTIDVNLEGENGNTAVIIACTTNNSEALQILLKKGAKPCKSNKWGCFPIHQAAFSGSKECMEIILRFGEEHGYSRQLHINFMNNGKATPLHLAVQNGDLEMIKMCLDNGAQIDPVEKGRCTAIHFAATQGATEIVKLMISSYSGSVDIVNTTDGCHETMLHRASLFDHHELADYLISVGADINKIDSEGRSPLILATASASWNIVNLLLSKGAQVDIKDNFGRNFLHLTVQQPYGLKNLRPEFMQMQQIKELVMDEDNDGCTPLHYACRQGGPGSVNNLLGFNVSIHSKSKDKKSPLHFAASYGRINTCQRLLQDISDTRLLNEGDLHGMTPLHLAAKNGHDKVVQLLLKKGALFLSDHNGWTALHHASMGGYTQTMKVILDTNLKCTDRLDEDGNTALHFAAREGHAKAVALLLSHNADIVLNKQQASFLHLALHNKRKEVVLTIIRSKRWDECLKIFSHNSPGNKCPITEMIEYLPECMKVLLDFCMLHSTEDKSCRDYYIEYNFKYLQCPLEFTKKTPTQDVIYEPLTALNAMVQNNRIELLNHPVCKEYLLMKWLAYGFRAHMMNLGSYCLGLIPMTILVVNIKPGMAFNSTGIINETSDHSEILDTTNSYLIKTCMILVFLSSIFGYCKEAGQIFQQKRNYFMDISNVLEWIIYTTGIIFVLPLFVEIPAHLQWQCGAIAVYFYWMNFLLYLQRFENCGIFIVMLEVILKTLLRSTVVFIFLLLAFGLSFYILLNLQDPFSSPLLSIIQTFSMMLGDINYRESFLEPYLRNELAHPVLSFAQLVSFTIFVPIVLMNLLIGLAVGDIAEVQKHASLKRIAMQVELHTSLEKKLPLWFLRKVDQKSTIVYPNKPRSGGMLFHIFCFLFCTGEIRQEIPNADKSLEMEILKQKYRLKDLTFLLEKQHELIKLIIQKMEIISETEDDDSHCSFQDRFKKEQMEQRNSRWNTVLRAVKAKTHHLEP

Turning to `Cn1c(=O)n(C)c2c(=O)n(Cc3nc(C[C@H](O)c4ccc(Cl)cc4)no3)ncc21` [Example 1, 5-({3-[(2S)-2-(4-chlorophenyl)-2-hydroxyethyl]-1,2,4-oxadiazol-5-yl}methyl)-1,3-dimethyl-1H,2H,3H,4H,5H-imidazo[4,5-d]pyridazine-2,4-dione], the “human LM [% Qh]” value in series [1] is recorded as <23 % Qh. Also, the “human Hepatocytes [% Qh]” value in series [2] was determined as 10 % Qh. The IC50 in series [3] is 22 nM.
With `Cc1ccc([C@@H](O)Cc2noc(Cn3ncc4c(c3=O)n(C)c(=O)n4C)n2)cc1` [Example 2], the “human LM [% Qh]” value in series [1] is on record as <23 % Qh. Moreover, in series [2], the “human Hepatocytes [% Qh]” value worked out at 14 % Qh. Moreover, the IC50 in series [3] is 47 nM.
For the compound `Cn1c(=O)n(C)c2c(=O)n(Cc3nc(C[C@H](O)c4ccc(F)cc4)no3)ncc21` [Example 3], the “human LM [% Qh]” value in series [1] was <23 % Qh. In addition, the “human Hepatocytes [% Qh]” value in series [2] came to 13 % Qh. Further, the IC50 in series [3] was 147 nM.
The like results for `Cn1c(=O)n(C)c2c(=O)n(Cc3nc(C[C@H](O)c4cc5ccccc5o4)no3)ncc21` [Example 4] were, in that order, <23 % Qh, 9 % Qh and 158 nM.
As to `Cn1cnc2cnn(Cc3nc(C[C@H](O)c4ccc(Cl)cc4)no3)c(=O)c21` [Example 5], the “human LM [% Qh]” value in series [1] is reported as <23 % Qh. Moreover, in series [2], the “human Hepatocytes [% Qh]” value was 23 % Qh. The IC50 in series [3] was determined as 60 nM.
Turning to `Cc1ccc([C@@H](O)Cc2noc(Cn3ncc4ncn(C)c4c3=O)n2)cc1` [Example 6], the “human LM [% Qh]” value in series [1] is reported as <23 % Qh. The “human Hepatocytes [% Qh]” value in series [2] came out at 9 % Qh. The IC50 in series [3] is 96 nM.
With `Cn1cnc2cnn(Cc3nc(C[C@H](O)c4ccc5c(c4)OCO5)no3)c(=O)c21` [Example 7], the “human LM [% Qh]” value in series [1] is reported as <23 % Qh. Moreover, the “human Hepatocytes [% Qh]” value in series [2] is on record as 9 % Qh. For the same compound, in series [3], the IC50 stood at 204 nM.
Regarding `Cn1cnc2cnn(Cc3nc(C[C@H](O)c4ccc(Br)cc4)no3)c(=O)c21` [Example 8, 6-({3-[(2S)-2-(4-bromophenyl)-2-hydroxyethyl]-1,2,4-oxadiazol-5-yl}methyl)-1-methyl-1H,6H,7H-imidazo[4,5-d]pyridazin-7-one], the “human LM [% Qh]” value in series [1] is recorded as <23 % Qh. The “human Hepatocytes [% Qh]” value in series [2] worked out at 39 % Qh. Further, the IC50 in series [3] came out at 41 nM.
With `Cn1cnc2cnn(Cc3nc(C[C@H](O)c4cc5ccc(F)cc5s4)no3)c(=O)c21` [Example 9], the “human LM [% Qh]” value in series [1] was determined as 41 % Qh. Also, the “human Hepatocytes [% Qh]” value in series [2] is recorded as 43 % Qh. In series [3], the IC50 is 9 nM.
The like results for `Cn1cnc2cnn(Cc3nc(C[C@H](O)c4cc5cc(F)ccc5o4)no3)c(=O)c21` [Example 10] were, in that order, <23 % Qh, 29 % Qh and 13 nM.
With `Cn1cnc2cnn(Cc3nc(C[C@H](O)c4cc5cc(Cl)ccc5o4)no3)c(=O)c21` [Example 11], the “human LM [% Qh]” value in series [1] is listed as 30 % Qh. Also, the “human Hepatocytes [% Qh]” value in series [2] amounted to 35 % Qh. Further, the IC50 in series [3] turned out to be 19 nM.
In the case of `Cn1cnc2cnn(Cc3nc(C[C@H](O)c4cc5ccccc5s4)no3)c(=O)c21` [Example 12], the “human LM [% Qh]” value in series [1] came to 31 % Qh. For the same compound, in series [2], the “human Hepatocytes [% Qh]” value was 42 % Qh. In addition, the half-inhibitory concentration (IC50) in series [3] amounted to 24 nM.
In the case of `Cn1c(=O)n(C)c2c(=O)n(Cc3nc(C[C@H](O)c4cc5ccc(F)cc5s4)no3)ncc21` [Example 13], the “human LM [% Qh]” value in series [1] came out at 36 % Qh. The IC50 in series [3] was determined as 9 nM.
As to `Cn1c(=O)n(C)c2c(=O)n(Cc3nc(C[C@H](O)c4cc5ccccc5s4)no3)ncc21` [Example 14], the “human LM [% Qh]” value in series [1] was <23 % Qh. In series [2], the “human Hepatocytes [% Qh]” value turned out to be 43 % Qh. In addition, in series [3], the half-inhibitory concentration (IC50) was determined as 19 nM.
Taken in the same sequence, the figures for `Cn1c(=O)n(C)c2c(=O)n(Cc3nc(C[C@H](O)c4cc5cc(Cl)ccc5o4)no3)ncc21` [Example 15] were <23 % Qh, 12 % Qh and 47 nM.
On to `Cn1c(=O)n(C)c2c(=O)n(Cc3nc(C[C@H](O)c4cc5cc(F)ccc5o4)no3)ncc21` [Example 16], for which the “human LM [% Qh]” value in series [1] is <23 % Qh. For the same compound, the “human Hepatocytes [% Qh]” value in series [2] was 14 % Qh. In addition, the IC50 in series [3] was 79 nM.
